Ends that are not written are not given here.
Legend:
[1] = Plasma decay of 125I-labelled synthetic peptide after ear vein injection; assay type: in vivo, rabbit; details: for additional fall of plasma level over the next three hours: from one hour to four hours after injection
Method: Each labelled synthetic peptide preparation (containing, for example, 150 to 400 or more μCi of ^125 I-labelled peptide) in column elution buffer was injected into the marginal ear vein of the ballooned and healing New Zealand white rabbits or WHHL rabbits. Serial blood samples were obtained from the opposite ear during the ensuing 0-24 hours and were analyzed for radioactivity. The labelled peptide concentrations in the blood samples that were withdrawn over the first 10 minutes after injection were extrapolated to zero time to determine the time zero radioactivity in the calculation of average plasma radioactivity. […] Peptides SP15a, SP17, SP19a, SP21a, SP28, SP34a, and SP30 were cleared rapidly from the plasma with half-lives of about one minute or less; after one hour, the plasma levels were less than 10% of the injected dose and fell by an additional 1% over the next three hours. Peptides SP15a, SP17, SP21a, SP28, SP34a, and SP30 leveled off to a plasma level of 3-6%; peptide SP19a cleared more quickly and leveled off to a concentration of 0.3% (at four hours).

anti-SP-4 antiserum = experiment: ELISA immunological cross-reactivity with anti-SP-4 antiserum; assay type: binding; details: ELISA plates coated with peptide or LDL, rabbit polyclonal anti-SP-4 antiserum
Method: To produce anti-synthetic peptide antisera, purified synthetic peptide was dissolved in PBS, pH 7.4 at a concentration of 1 mg/ml. The peptide solution was mixed with an equal volume of complete Freund's adjuvant and vortexed thoroughly until a thick emulsion was produced. New Zealand White rabbits (Millbrook Farms, Amherst, Mass.) were injected with a total of 0.5 mg synthetic peptide administered subcutaneously in the four dorsal quadrants. The rabbits were given a boost (injected at the same sites) with 0.5 mg peptide emulsified in incomplete Freund's adjuvant 2-3 weeks later. Eight to ten days after the first boost, the animals were given a second, identical boost and were bled of 30 ml 8 to 10 days later.
To test for immunological cross-reactivity microtiter plates (Immulon II Dynatech Labs, Chantilly, Va.) were coated with the purified synthetic peptide or LDL by an overnight incubation at 4° C. with 100 ng peptide per well in 50 mM carbonate, pH 9.6, and blocked for nonspecific binding with an additional overnight incubation with phosphate-buffered saline, pH 7.4 (PBS), 1% bovine serum albumin (BSA). Control wells were coated with BSA alone. After washing twice with PBS, the wells were filled with serial dilutions (1:10 to 1:100,000 made in PBS, 3% BSA) of a rabbit polyclonal antibody generated against the synthetic peptide(s) and incubated for 45 minutes at room temperature. Following thorough washing (3× with PBS, 0.1% BSA), the wells were filled with a 1:2000 dilution of goat anti-rabbit IgG-horseradish peroxidase conjugate (Atlantic Antibodies, Scarborough, Me.). After a final wash, the wells were filled with 3,3'-5,5'-tetramethybenzidine (TMB) microwell peroxidase substrate (Kirkegaard and Perry Labs, Gaithersburg, Md.) and read at 650 nm every two minutes on an ELISA-5 automated plate reader (Physica, New York, N.Y.). Results (see, e.g., FIGS. 4 and 5) are expressed as the initial velocity of substrate conversion (change in OD650 /hr), which is determined by a linear regression of 15 data points per well. Each data point represents the average of three measured data points from the same plate, run at the same time.

Row | Substance | additional fall of plasma level over the next three hours [1] | binding of anti-SP-4 antiserum to coated peptide or LDL (anti-SP-4 antiserum) | plasma concentration at which peptide leveled off ([1]; at four hours)
1 | Ac-YVLDEFREKLNEELEALKQK-NH2 [SP-34a] | 1% |  | 
2 | YKLALEAARLLANAEGAK-NH2 [SP-8, H2 N-Tyr-Lys-Leu-Ala-Leu-Glu-Ala-Ala-Arg-Leu-Leu-Ala-Asn-Ala-Glu-Gly-Ala-Lys- CONH2] |  | bind | 
3 | Ac-YKLALEAARLLANAEGAK-NH2 [SP-8A, CH3 CONH-Tyr-Lys-Leu-Ala-Leu-Glu-Ala-Ala-Arg-Leu-Leu-Ala-Asn-Ala-Glu-Gly-Ala-Lys-CONH2] |  | bind | 
4 | Ac-YRALVDTLKFVTEQAKGA-NH2 [SP-19a, CH3 CONH-Tyr-Arg-Ala-Leu-Val-Asp-Thr-Leu-Lys-Phe-Val-Thr-Glu-Gln-Ala-Lys-Gly-Ala-CONH2] | 1% |  | 0.3%
5 | YAALDLNAVANKIADFEL-NH2 [SP-17, H2 N-Tyr-Ala-Ala-Leu-Asp-Leu-Asn-Ala-Val-Ala-Asn-Lys-Ile-Ala-Asp-Phe-Glu-Leu- CONH2] | 1% |  | 
6 | YVGVAPGVGVAPGVGVAPG [SP-28, H2 N-Tyr-Val-Gly-Val-Ala-Pro-Gly-Val-Gly-Val-Ala-Pro-Gly-Val-Gly-Val-Ala-Pro- Gly-OH] | 1% |  | 
7 | Ac-YRALVDTEFKVKQEAGAK-NH2 [SP-21a, CH3 CONH-Tyr-Arg-Ala-Leu-Val-Asp-Thr-Glu-Phe-Lys-Val-Lys-Gln-Glu-Ala-Gly-Ala-Lys-CONH2] | 1% |  | 
8 | Ac-YKLALEAARLLADAEGAK-NH2 [SP-6A, CH3 CONH-Tyr-Lys-Leu-Ala-Leu-Glu-Ala-Ala-Arg-Leu-Leu-Ala-Asp-Ala-Glu-Gly-Ala-Lys-CONH2] |  | bind | 
9 | Ac-YRALVDTLK-NH2 [SP-14A, CH3 CONH-Tyr-Arg-Ala-Leu-Val-Asp-Thr-Leu-Lys-CONH2] |  | bind | 
10 | Ac-YRALVDTLKFVTQAEGAK-NH2 [SP-4A, CH3 CONH-Tyr-Arg-Ala-Leu-Val-Asp-Thr-Leu-Lys-Phe-Val-Thr-Gln-Ala-Glu-Gly-Ala-Lys-CONH2] |  | bind | 
11 | YRALVDTLKFVTQAEGAK-NH2 [SP-4, NH2 -Tyr-Arg-Ala-Leu-Val-Asp-Thr-Leu-Lys-Phe-Val-Thr-Gln-Ala-Glu-Gly-Ala-Lys-CONH2] |  | bind | 
12 | Ac-YRALVDYLKFVTQL-NH2 [SP-12A, CH3 CONH-Tyr-Arg-Ala-Leu-Val-Asp-Tyr-Leu-Lys-Phe-Val-Thr-Gln-Leu-CONH2] |  | bind | 
13 | YVPGVGVPGVGVPGVGVPGVG-NH2 [SP-30, H2 N-Tyr-Val-Pro-Gly-Val-Gly-Val-Pro-Gly-Val-Gly-Val-Pro-Gly-Val-Gly-Val-Pro- Gly-Val-Gly-CONH2] | 1% |  | 
14 | Ac-YAKFRETLEDTRDRMY-NH2 [SP-15a, CH3 CONH-Tyr-Ala-Lys-Phe-Arg-Glu-Thr-Leu-Glu-Asp-Thr-Arg-Asp-Arg-Met-Tyr-CONH2] | 1% |  | 
15 | YKLALEAARLLADAEGAK-NH2 [SP-6, H2 N-Tyr-Lys-Leu-Ala-Leu-Glu-Ala-Ala-Arg-Leu-Leu-Ala-Asp-Ala-Glu-Gly-Ala-Lys- CONH2] |  | bind | 
